Experimental data as given in patent US8722863B2, “Solid state forms of fidaxomycin and processes for preparation thereof” (Teva Pharmaceutical Works Ltd., priority 2012, dated 2014).

Experiments:
[1] = system: Clostridium difficile; conditions: cited from earlier work
[2] = stability under extreme conditions; assay type: physicochemical
Text: As discussed above, Form C of Fidaxomycin has advantageous properties. In particular, Form C of Fidaxomycin of the present invention can be reproduced in a high quality, i.e., chemical and polymorphical purity. The X-ray powder diffraction pattern of Form C is obtained in high crystallinity, as indicated by a high resolution PXRD pattern with relatively sharp, defined peaks. In addition, Form C is stable under extreme conditions.

[3] = hygroscopicity test according to the European pharmacopeia 5.11; assay type: physicochemical; conditions: Ph. Eur. chapter 5.11 hygroscopicity test
Text: As used herein and unless indicated otherwise, the term “non-hygroscopic” in relation to crystalline Fidaxomycin refers to less than 0.5%, and preferably less than 0.2% (w/w) absorption of water, for example atmospheric water, by the crystalline Fidaxomycin, as determined according to Ph. Eur. chapter 5.11 (“Hygroscopicity”).
As discussed above, Fidaxomycin Form Z1 has advantageous properties. In particular, the crystalline Fidaxomycin Form Z1 of the present invention is non-hygroscopic. When performing the hygroscopicity test according to the European pharmacopeia 5.11, the mass increase of Form Z1 was below about 0.2%. The advantageous of form Z1 as non-hygroscopic material provides better processing of Fidaxomycin in formulation. e.g., being less sticky and stable following granulation procedure.

[4] = stability in formulations; assay type: physicochemical; conditions: retains the anhydrous polymorph
Text: The ability to retain the anhydrous polymorph provides an opportunity to improve the performance characteristic in formulation e.g. dissolution profile and bioavailability.

## CCc1c(Cl)c(O)c(Cl)c(O)c1C(=O)O[C@H]1[C@H](O)[C@H](OC)[C@H](OC/C2=C\C=C\C[C@H](O)/C(C)=C/[C@H](CC)[C@@H](O[C@@H]3OC(C)(C)[C@@H](OC(=O)C(C)C)[C@H](O)[C@@H]3O)/C(C)=C/C(C)=C/C[C@@H]([C@@H](C)O)OC2=O)O[C@@H]1C [Fidaxomycin, 3-(((6-Deoxy-4-O-(3,5-dichloro-2-ethyl-4,6-dihydroxybenzoyl)-2-O-methyl-β-D-mannopyranosyl)oxy)-methyl)-12(R)-[(6-deoxy-5-C-methyl-4-O-(2-methyl-1-oxopropyl)-b-D-lyxo-hexopyranosyl)oxy]-11(S)-ethyl-8(S)-hydroxy-18(S)-(1(R)-hydroxyethyl)-9,13,15-trimethyloxacyclooctadeca-3,5,9,13,15-pentaene-2-one]
[1]
  activity against Clostridium difficile: shows activity

## CCc1c(Cl)c(O)c(Cl)c(O)c1C(=O)O[C@H]1[C@H](O)[C@H](OC)[C@H](OC/C2=C\C=C\C[C@H](O)/C(C)=C/[C@H](CC)[C@@H](O[C@@H]3OC(C)(C)[C@@H](OC(=O)C(C)C)[C@H](O)[C@@H]3O)/C(C)=C/C(C)=C/C[C@@H]([C@@H](C)O)OC2=O)O[C@@H]1C [Form C]
[2]
  stability under extreme conditions: stable

## CCc1c(Cl)c(O)c(Cl)c(O)c1C(=O)O[C@H]1[C@H](O)[C@H](OC)[C@H](OC/C2=C\C=C\C[C@H](O)/C(C)=C/[C@H](CC)[C@@H](O[C@@H]3OC(C)(C)[C@@H](OC(=O)C(C)C)[C@H](O)[C@@H]3O)/C(C)=C/C(C)=C/C[C@@H]([C@@H](C)O)OC2=O)O[C@@H]1C [Form Z1]
[3]
  mass increase (hygroscopicity): below 0.2%
[4]
  stability in formulations: excellent stability
